Literature values in patent US12350251B2, “Sexual health enhancement composition” (Rev Pharmaceuticals, Inc., priority 2016, dated 2025).
Where two headings read alike, the source gives them in different places.

Columns and labels:
[1] = not given; remark: listed apart in the source
[2] = tested on: cAMP production; settings: treated cells
[3] = tested on: human CC; settings: in vitro, alone; read-out: EC50 of relaxation of human CC
[4] = not given; remark: listed apart in the source

Question: Which results are given for Cl.N=C(N)NCCC[C@H](N)C(=O)O [L-arginine hydrochloride (HCl), L-arginine hydrochloride]?
Answer: Cmax (6 gm oral): 310 µM; Half-life (IV): 1 h; Half-life (PO): 1.5 h; changes in hemodynamics ([1]; 6 gm doses): No significant changes; urinary cGMP and nitrate excretion ([1]; about 6 gm to about 30 gm IV): significant increases; blood pressure and total peripheral resistance ([1]; after 30 gm IV): significantly decreased

Question: With N=C(N)NCCC[C@H](N)C(=O)O [L-arginine] as the compound, how does the “peripheral vasodilation in humans” value ([1]; IV infusion or oral, about 6 to about 30 gm) read?
Answer: induced peripheral vasodilation

Question: Which cAMP production [2] does the source give for Cc1ccc(N(CC2=NCCN2)c2cccc(O)c2)cc1 [phentolamine] here?
Answer: unaffected

Question: For COc1ccc(Cc2nccc3cc(OC)c(OC)cc23)cc1OC [papaverine], which cAMP production [2] is on record?
Answer: unaffected

Question: With CCCCC[C@H](O)/C=C/[C@H]1[C@H](O)CC(=O)[C@@H]1CCCCCCC(=O)O [prostaglandin E1] as the compound, how does the EC50 [3] read?
Answer: ~16 nM

Question: Which water solubility [4] does the source give for C=C[C@@]1(C)CC(=O)[C@]2(O)[C@@]3(C)[C@@H](O)CCC(C)(C)[C@@H]3[C@H](O)[C@H](OC(C)=O)[C@@]2(C)O1 [forskolin] here?
Answer: water soluble
